Assays:
[1] = target: T1, hPAD4 enzyme (Homo sapiens, UniProt Q9UM07); experiment: RFMS Assay 1 (rapid-fire mass spectrum PAD4 inhibition assay, BAEE substrate); format: biochemical; details: 5 nM hPAD4 enzyme, 250 μM BAEE, 30 mins compound and enzyme preincubation at 37° C., 90 min enzyme/substrate reaction
Outline: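 Human PAD4 (5 nM) preincubated 30 min at 37 °C with compound (top 50 μM, 0.5% DMSO), then 250 μM BAEE for 90 min at 37 °C in pH 7.5 HEPES with 50 μM calcium, 5 μM TPEN, 1 mM DTT. Product derivatized with phenyl glyoxal; citrulline product quantified by RapidFire MS/MS MRM, normalized to internal standard.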

[2] = target: T1, hPAD4 enzyme; experiment: RFMS Assay 2 (rapid-fire mass spectrum PAD4 inhibition assay, peptide substrate); format: biochemical; details: 35 nM recombinant human PAD4, substrate TSTGGRQGSHH, room temperature for 30 minutes; read-out: human PAD4 (hPAD4) IC50, RFMS Assay 2
Experimental: Stock compounds were dissolved and stored in 100% DMSO. Compound solutions were prepared via serial dilution at 3-fold intervals in DMSO with top compound concentration at […] in each assay. 0.25 μl of compound solution was transferred from the compound plate to the assay plate by using an acoustic dispenser. Final assay conditions: • Total reaction volume: 25 μl • Assay buffer: […] pH 7.4, 200 mM NaCl, 2 mM CaCl2, 5 mM DTT • 35 nM recombinant human PAD4 • 500 µM TSTGGRQGSHH (SEQ ID NO: 1) • 1.2% DMSO • Stop solution: 10% formic acid
Reaction mixtures were incubated at room temperature for 30 minutes. 10 μl each of the reaction mixtures was then mixed with 40 μl of 10% formic acid in a microtiter plate. The plate was frozen at −80° C. before shipping out on dry ice for RapidFire mass spectroscopy analysis.
Thawed samples were loaded onto the Rapid Fire 300 system (Agilent) wherein they were first sipped for 250 ms and then loaded onto a Agilent “C” (C18) cartridge using a mobile phase of water containing 0.09% formic acid/0.01% trifluoroacetic acid for 3000 ms desalting flowing at a rate of 1.5 ml/min. Once the samples were loaded and washed, a mobile phase of acetonitrile containing 0.09% formic acid/0.01% trifluoroacetic acid was used to elute the samples directly onto a Sciex API4000 triple quadrupole mass spectrometer for 3000 ms at a flow rate of 1.25 ml/min.
MRM transitions for substrate and product were monitored in positive ESI mode at m/z=562.3/969.7 and m/z=562.8/541.3 respectively. The dwell time for each transition was set at 100 ms, and the ESI voltage was used at 5500 with a source temperature of 650° C. Extracted ion peaks for each transition were integrated using the Rapid Fire Integrator software.

T1 sequence (Q9UM07 whole entry): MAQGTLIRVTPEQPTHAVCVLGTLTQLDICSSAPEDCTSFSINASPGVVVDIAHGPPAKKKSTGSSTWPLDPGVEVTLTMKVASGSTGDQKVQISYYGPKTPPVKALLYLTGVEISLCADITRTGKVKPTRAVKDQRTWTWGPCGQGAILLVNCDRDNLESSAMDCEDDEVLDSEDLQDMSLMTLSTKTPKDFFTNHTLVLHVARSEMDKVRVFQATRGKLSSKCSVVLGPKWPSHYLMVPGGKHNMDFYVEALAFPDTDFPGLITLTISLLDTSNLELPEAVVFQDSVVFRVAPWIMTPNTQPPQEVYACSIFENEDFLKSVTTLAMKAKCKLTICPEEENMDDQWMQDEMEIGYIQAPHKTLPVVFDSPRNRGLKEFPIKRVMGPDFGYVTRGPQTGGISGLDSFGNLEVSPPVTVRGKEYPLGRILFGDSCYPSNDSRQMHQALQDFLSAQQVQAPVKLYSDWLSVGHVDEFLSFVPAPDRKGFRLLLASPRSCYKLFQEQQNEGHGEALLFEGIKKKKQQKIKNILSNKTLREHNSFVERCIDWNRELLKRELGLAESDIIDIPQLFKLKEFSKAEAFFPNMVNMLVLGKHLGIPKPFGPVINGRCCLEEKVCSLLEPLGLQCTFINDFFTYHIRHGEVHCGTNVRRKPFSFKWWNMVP

SMILES | IC50 [1] [nM] | IC50 [2] [nM]
Cn1c(-c2cc3ccc(C(C)(C)O)nc3n2CC2CC2)nc2cc3c(nc21)CCN(C[C@H](N)CF)C3=O [Example 33, (S)-7-(2-amino-3-fluoropropyl)-2-(1-(cyclopropylmethyl)-6-(2-hydroxypropan-2-yl)-1H-pyrrolo[2,3-b]pyridin-2-yl)-3-methyl-3,5,6,7-tetrahydro-8H-imidazo[4,5-b][1,6]naphthyridin-8-one] | 11 to 100 | 501 to 1000
Cn1c(-c2cc3cccc(OCCc4cnoc4)c3n2CC2CC2)nc2cc3c(nc21)CCN(C[C@H](N)CF)C3=O [Example 39, (S)-7-(2-amino-3-fluoropropyl)-2-(1-(cyclopropylmethyl)-7-(2-(isoxazol-4-yl)ethoxy)-1H-indol-2-yl)-3-methyl-3,5,6,7-tetrahydro-8H-imidazo[4,5-b][1,6]naphthyridin-8-one] | ≤ 10 | 11 to 100
Cn1c(-c2cc3cccc(OCCn4cncc4F)c3n2CC2CC2)nc2cc3c(nc21)CCN(C[C@H](N)CF)C3=O [Example 42, (S)-7-(2-amino-3-fluoropropyl)-2-(1-(cyclopropylmethyl)-7-(2-(5-fluoro-1H-imidazol-1-yl)ethoxy)-1H-indol-2-yl)-3-methyl-3,5,6,7-tetrahydro-8H-imidazo[4,5-b][1,6]naphthyridin-8-one] | 11 to 100 | 101 to 500
Cn1c(-c2cc3cccc(OCCn4ccnc4)c3n2CC2CC2)nc2cc3c(nc21)CCN(C[C@H](N)CF)C3=O [Example 44, (S)-2-(7-(2-(1H-imidazol-1-yl)ethoxy)-1-(cyclopropylmethyl)-1H-indol-2-yl)-7-(2-amino-3-fluoropropyl)-3-methyl-3,5,6,7-tetrahydro-8H-imidazo[4,5-b][1,6]naphthyridin-8-one] | ≤ 10 | 11 to 100
Cc1nnc(CCOc2cccc3cc(-c4nc5cc6c(nc5n4C)CCN(C[C@H](N)CF)C6=O)n(CC4CC4)c23)o1 [Example 54, (S)-7-(2-amino-3-fluoropropyl)-2-(1-(cyclopropylmethyl)-7-(2-(5-methyl-1,3,4-oxadiazol-2-yl)ethoxy)-1H-indol-2-yl)-3-methyl-3,5,6,7-tetrahydro-8H-imidazo[4,5-b][1,6]naphthyridin-8-one] | 11 to 100 | 11 to 100
Cn1c(-c2cc3cccc(OC[C@@H]4CNC(=O)C4)c3n2CC2CC2)nc2cc3c(nc21)CCN(C[C@H](N)CF)C3=O [Example 59, 7-((S)-2-amino-3-fluoropropyl)-2-(1-(cyclopropylmethyl)-7-(((S)-5-oxopyrrolidin-3-yl)methoxy)-1H-indol-2-yl)-3-methyl-3,5,6,7-tetrahydro-8H-imidazo[4,5-b][1,6]naphthyridin-8-one] | 11 to 100 | 11 to 100
C[C@H](Cn1ccnc1)Oc1cccc2cc(-c3nc4cc5c(nc4n3C)CCN(C[C@H](N)CF)C5=O)n(CC3CC3)c12 [Example 62, 2-(7-(((R)-1-(1H-imidazol-1-yl)propan-2-yl)oxy)-1-(cyclopropylmethyl)-1H-indol-2-yl)-7-((S)-2-amino-3-fluoropropyl)-3-methyl-3,5,6,7-tetrahydro-8H-imidazo[4,5-b][1,6]naphthyridin-8-one] | 11 to 100 | 101 to 500

Second part, the molecule after the results:

IC50 [1] [nM] | IC50 [2] [nM] | SMILES
501 to 1000 | > 1000 | COc1cccc2cc(-c3nc4cc5c(nc4n3C)CCN(C[C@H]3COCCN3)C5=O)n(CC3CC3)c12 [Example 27, (S)-2-(1-(cyclopropylmethyl)-7-methoxy-1H-indol-2-yl)-3-methyl-7-(morpholin-3-ylmethyl)-3,5,6,7-tetrahydro-8H-imidazo[4,5-b][1,6]naphthyridin-8-one]
11 to 100 | ≤ 10 | COCC(=O)N1CCC(c2cccc3cc(-c4nc5cc6c(nc5n4C)CCN(C[C@H](N)CF)C6=O)n(CC4CC4)c23)CC1 [Example 30, (S)-7-(2-amino-3-fluoropropyl)-2-(1-(cyclopropylmethyl)-7-(1-(2-methoxyacetyl)piperidin-4-yl)-1H-indol-2-yl)-3-methyl-3,5,6,7-tetrahydro-8H-imidazo[4,5-b][1,6]naphthyridin-8-one]
≤ 10 | 11 to 100 | Cn1c(-c2cc3cccc(OC[C@@H]4CNC(=O)O4)c3n2CC2CC2)nc2cc3c(nc21)CCN(C[C@H](N)CF)C3=O [Example 34, (S)-5-(((2-(7-((S)-2-amino-3-fluoropropyl)-3-methyl-8-oxo-5,6,7,8-tetrahydro-3H-imidazo[4,5-b][1,6]naphthyridin-2-yl)-1-(cyclopropylmethyl)-1H-indol-7-yl)oxy)methyl)oxazolidin-2-one]
≤ 10 | 11 to 100 | Cn1c(-c2cc3cccc(OCCc4cnco4)c3n2CC2CC2)nc2cc3c(nc21)CCN(C[C@H](N)CF)C3=O [Example 41, (S)-7-(2-amino-3-fluoropropyl)-2-(1-(cyclopropylmethyl)-7-(2-(oxazol-5-yl)ethoxy)-1H-indol-2-yl)-3-methyl-3,5,6,7-tetrahydro-8H-imidazo[4,5-b][1,6]naphthyridin-8-one]
≤ 10 | 11 to 100 | Cn1c(-c2cc3cccc(OCCc4ccn[nH]4)c3n2CC2CC2)nc2cc3c(nc21)CCN(C[C@H](N)CF)C3=O [Example 43, (S)-2-(7-(2-(1H-pyrazol-5-yl)ethoxy)-1-(cyclopropylmethyl)-1H-indol-2-yl)-7-(2-amino-3-fluoropropyl)-3-methyl-3,5,6,7-tetrahydro-8H-imidazo[4,5-b][1,6]naphthyridin-8-one]
≤ 10 | 11 to 100 | Cn1c(-c2cc3cccc(OCCc4ccon4)c3n2CC2CC2)nc2cc3c(nc21)CCN(C[C@H](N)CF)C3=O [Example 46, (S)-7-(2-amino-3-fluoropropyl)-2-(1-(cyclopropylmethyl)-7-(2-(isoxazol-3-yl)ethoxy)-1H-indol-2-yl)-3-methyl-3,5,6,7-tetrahydro-8H-imidazo[4,5-b][1,6]naphthyridin-8-one]
≤ 10 | 11 to 100 | Cn1c(-c2cc3cccc(OCCc4cnn[nH]4)c3n2CC2CC2)nc2cc3c(nc21)CCN(C[C@H](N)CF)C3=O [Example 47, (S)-2-(7-(2-(1H-1,2,3-triazol-5-yl)ethoxy)-1-(cyclopropylmethyl)-1H-indol-2-yl)-7-(2-amino-3-fluoropropyl)-3-methyl-3,5,6,7-tetrahydro-8H-imidazo[4,5-b][1,6]naphthyridin-8-one]
11 to 100 | 101 to 500 | Cc1ncoc1CCOc1cccc2cc(-c3nc4cc5c(nc4n3C)CCN(C[C@H](N)CF)C5=O)n(CC3CC3)c12 [Example 48, (S)-7-(2-amino-3-fluoropropyl)-2-(1-(cyclopropylmethyl)-7-(2-(4-methyloxazol-5-yl)ethoxy)-1H-indol-2-yl)-3-methyl-3,5,6,7-tetrahydro-8H-imidazo[4,5-b][1,6]naphthyridin-8-one]
≤ 10 | 11 to 100 | Cn1c(-c2cc3cccc(OCCn4cnc(F)c4)c3n2CC2CC2)nc2cc3c(nc21)CCN(C[C@H](N)CF)C3=O [Example 70, (S)-7-(2-amino-3-fluoropropyl)-2-(1-(cyclopropylmethyl)-7-(2-(4-fluoro-1H-imidazol-1-yl)ethoxy)-1H-indol-2-yl)-3-methyl-3,5,6,7-tetrahydro-8H-imidazo[4,5-b][1,6]naphthyridin-8-one]

From patent US20250353848A1, “HETEROCYCLIC PAD4 INHIBITORS” (Celgene Corporation, priority 2022, published 2025)
